Test system: prostate carcinomas
Experiment: concomitant therapy during treatment of carcinomas
Assay type: in vivo
Conditions: prophylactic and therapeutic effects
Excerpt: This applies both to the period before, during and at defined intervals after the tumor-destructive therapy, e.g. an operation, chemotherapy and/or radiotherapy. The reduced intake of micronutrients (e.g. vitamins, trace elements) which is caused by nausea, reduced food intake, vomiting, diarrhea and sweating is compensated. This improves the patient's tolerance of the treatment, increases the response to the therapy and improves the patient's quality of life. […] Overall, the efficacy of the tumor-destructive therapy is improved.

CC(C)=CCC/C(C)=C/C=C/C(C)=C/C=C/C(C)=C/C=C/C=C(C)/C=C/C=C(C)/C=C/C=C(\C)CCC=C(C)C [lycopene]
incidence and aggressiveness of prostate carcinomas: reduction in the incidence and aggressiveness
